Values belong to the molecule of their own block, whether it stands above or below them.
What was measured:
[1] = target: Hepatocyte growth factor receptor (Homo sapiens) (UniProt P08581); experiment: Inhibition of MET (unknown origin) at 0.078 uM relative to control
[2] = target: T1, MAP kinase-activated protein kinase 5 (Homo sapiens) (UniProt Q8IW41); experiment: Inhibition of PRAK (unknown origin) at 0.078 uM relative to control
T1 sequence (whole entry): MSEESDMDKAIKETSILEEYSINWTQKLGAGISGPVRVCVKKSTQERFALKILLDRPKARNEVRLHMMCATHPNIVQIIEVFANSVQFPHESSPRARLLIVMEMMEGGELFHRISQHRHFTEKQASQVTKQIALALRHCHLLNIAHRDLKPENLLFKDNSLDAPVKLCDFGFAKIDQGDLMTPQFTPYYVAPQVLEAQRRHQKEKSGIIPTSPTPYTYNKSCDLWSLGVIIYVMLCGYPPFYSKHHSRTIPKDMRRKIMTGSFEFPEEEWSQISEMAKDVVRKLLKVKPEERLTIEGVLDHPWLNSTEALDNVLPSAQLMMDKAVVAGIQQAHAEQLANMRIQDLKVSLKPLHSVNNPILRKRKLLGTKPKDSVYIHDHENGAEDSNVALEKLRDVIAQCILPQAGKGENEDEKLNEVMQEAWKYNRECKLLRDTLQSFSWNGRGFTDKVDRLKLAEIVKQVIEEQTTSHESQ

[3] = target: Glycogen synthase kinase-3 beta (Homo sapiens) (UniProt P49841); experiment: Inhibition of GSK3b (unknown origin) at 0.078 uM relative to control
Chain of Glycogen synthase kinase-3 beta (Homo sapiens) (P49841 whole entry, looked up): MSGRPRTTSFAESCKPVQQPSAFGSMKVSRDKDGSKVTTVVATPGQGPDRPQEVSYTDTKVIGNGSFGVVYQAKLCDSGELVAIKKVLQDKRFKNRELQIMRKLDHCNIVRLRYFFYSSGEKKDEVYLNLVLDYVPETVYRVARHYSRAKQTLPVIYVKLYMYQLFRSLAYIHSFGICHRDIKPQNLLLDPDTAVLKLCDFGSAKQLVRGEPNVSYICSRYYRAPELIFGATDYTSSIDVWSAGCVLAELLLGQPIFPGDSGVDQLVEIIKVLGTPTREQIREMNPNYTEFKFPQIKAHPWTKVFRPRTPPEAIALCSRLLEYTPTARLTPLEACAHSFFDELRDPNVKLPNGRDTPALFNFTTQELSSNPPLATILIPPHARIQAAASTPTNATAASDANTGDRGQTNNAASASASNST

[4] = target: Ribosomal protein S6 kinase alpha-5 (Homo sapiens) (UniProt O75582); experiment: Inhibition of MSK1 (unknown origin) at 0.078 uM relative to control
[5] = target: Phosphorylase b kinase gamma catalytic chain, liver/testis isoform (Homo sapiens) (UniProt P15735); experiment: Inhibition of PhKg2 (unknown origin) at 0.49 uM relative to control
Chain of Phosphorylase b kinase gamma catalytic chain, liver/testis isoform (Homo sapiens) (P15735 whole entry, canonical isoform): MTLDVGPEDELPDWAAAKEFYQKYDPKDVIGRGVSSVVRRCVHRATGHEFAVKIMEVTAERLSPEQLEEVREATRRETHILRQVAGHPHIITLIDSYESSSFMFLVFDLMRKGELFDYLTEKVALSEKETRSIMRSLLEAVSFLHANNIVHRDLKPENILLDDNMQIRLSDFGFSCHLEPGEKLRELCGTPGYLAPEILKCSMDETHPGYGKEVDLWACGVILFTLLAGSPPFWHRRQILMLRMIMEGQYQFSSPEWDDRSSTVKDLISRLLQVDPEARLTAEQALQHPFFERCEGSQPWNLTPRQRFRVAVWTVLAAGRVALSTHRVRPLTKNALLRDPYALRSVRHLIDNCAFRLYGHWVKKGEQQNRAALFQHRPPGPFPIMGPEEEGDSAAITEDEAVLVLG

[6] = system: Mitogen-activated protein kinase 14 (Homo sapiens), Q16539 [T106M]; experiment: Inhibition of SAPK2a T106M mutant (unknown origin) at 0.49 uM relative to control
Chain of Mitogen-activated protein kinase 14 (Homo sapiens), Q16539 [T106M] (Q16539 whole entry T106M): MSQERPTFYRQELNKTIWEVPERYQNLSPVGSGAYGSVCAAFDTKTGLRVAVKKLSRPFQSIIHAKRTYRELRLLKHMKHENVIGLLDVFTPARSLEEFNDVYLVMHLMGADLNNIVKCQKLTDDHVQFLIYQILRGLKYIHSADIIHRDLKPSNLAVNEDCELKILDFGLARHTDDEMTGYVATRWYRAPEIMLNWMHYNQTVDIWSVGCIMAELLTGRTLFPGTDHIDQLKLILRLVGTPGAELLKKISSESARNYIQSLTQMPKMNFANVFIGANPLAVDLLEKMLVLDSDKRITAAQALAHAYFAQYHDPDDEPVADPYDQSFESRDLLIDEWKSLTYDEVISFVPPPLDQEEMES

[7] = target: Fibroblast growth factor receptor 1 (Homo sapiens) (UniProt P11362); experiment: Inhibition of FGFR1 (unknown origin) at 0.49 uM relative to control
[8] = target: Mitogen-activated protein kinase kinase kinase kinase 5 (Homo sapiens) (UniProt Q9Y4K4); experiment: Inhibition of KHS1 (unknown origin) at 0.49 uM relative to control
[9] = target: Dual specificity protein kinase CLK2 (Homo sapiens) (UniProt P49760); experiment: Inhibition of CLK2 (unknown origin) at 0.49 uM relative to control
Chain of Dual specificity protein kinase CLK2 (Homo sapiens) (P49760 whole entry, looked up, canonical isoform): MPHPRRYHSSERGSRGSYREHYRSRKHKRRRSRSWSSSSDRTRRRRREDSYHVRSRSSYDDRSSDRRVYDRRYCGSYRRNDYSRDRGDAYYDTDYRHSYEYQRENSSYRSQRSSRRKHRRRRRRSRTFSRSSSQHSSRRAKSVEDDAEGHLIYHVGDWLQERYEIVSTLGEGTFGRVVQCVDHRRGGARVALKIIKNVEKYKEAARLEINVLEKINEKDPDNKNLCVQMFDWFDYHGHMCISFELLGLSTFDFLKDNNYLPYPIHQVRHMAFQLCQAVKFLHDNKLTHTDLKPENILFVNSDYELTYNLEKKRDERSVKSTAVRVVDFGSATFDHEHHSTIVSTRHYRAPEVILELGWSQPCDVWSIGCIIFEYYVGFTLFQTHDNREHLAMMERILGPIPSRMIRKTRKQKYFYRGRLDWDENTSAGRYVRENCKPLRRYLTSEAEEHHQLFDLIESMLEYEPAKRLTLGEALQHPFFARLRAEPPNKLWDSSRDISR

[10] = target: Casein kinase I isoform gamma-1 (Homo sapiens) (UniProt Q9HCP0); experiment: Inhibition of CK1-gamma1 (unknown origin) at 0.49 uM relative to control
Chain of Casein kinase I isoform gamma-1 (Homo sapiens) (Q9HCP0 whole entry, looked up, canonical isoform): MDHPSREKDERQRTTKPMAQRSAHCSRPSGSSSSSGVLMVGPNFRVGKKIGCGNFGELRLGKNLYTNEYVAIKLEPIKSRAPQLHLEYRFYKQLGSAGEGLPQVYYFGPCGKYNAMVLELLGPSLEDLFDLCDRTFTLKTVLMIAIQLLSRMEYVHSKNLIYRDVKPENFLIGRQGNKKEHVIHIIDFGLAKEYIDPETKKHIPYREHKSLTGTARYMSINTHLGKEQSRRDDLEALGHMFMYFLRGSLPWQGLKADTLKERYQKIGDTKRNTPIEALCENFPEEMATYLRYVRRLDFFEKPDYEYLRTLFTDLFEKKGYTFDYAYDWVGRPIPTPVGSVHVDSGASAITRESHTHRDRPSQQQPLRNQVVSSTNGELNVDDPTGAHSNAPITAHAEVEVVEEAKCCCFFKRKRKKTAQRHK

[11] = target: T2, Protein kinase C zeta type (Homo sapiens) (UniProt Q05513); experiment: Inhibition of PKC-zeta (unknown origin) at 0.49 uM relative to control
T2 sequence (whole entry): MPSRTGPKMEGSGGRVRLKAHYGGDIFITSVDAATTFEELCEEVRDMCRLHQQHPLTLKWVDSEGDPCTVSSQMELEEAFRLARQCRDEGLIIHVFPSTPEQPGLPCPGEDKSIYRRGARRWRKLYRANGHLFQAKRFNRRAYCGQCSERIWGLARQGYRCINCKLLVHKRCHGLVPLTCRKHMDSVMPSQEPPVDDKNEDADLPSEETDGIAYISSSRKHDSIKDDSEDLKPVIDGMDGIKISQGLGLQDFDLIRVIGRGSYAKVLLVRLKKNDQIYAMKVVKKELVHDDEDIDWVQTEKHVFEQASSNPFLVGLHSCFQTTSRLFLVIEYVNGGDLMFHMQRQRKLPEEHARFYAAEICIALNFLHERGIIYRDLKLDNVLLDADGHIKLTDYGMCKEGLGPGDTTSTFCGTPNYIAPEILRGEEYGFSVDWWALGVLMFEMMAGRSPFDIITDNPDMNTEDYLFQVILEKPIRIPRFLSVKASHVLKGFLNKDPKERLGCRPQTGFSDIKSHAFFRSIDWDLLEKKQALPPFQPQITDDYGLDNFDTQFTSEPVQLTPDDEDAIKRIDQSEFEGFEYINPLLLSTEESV

[12] = target: Dual specificity tyrosine-phosphorylation-regulated kinase 4 (Homo sapiens) (UniProt Q9NR20); experiment: Inhibition of DYRK4 (unknown origin) at 0.49 uM relative to control
Chain of Dual specificity tyrosine-phosphorylation-regulated kinase 4 (Homo sapiens) (Q9NR20 whole entry): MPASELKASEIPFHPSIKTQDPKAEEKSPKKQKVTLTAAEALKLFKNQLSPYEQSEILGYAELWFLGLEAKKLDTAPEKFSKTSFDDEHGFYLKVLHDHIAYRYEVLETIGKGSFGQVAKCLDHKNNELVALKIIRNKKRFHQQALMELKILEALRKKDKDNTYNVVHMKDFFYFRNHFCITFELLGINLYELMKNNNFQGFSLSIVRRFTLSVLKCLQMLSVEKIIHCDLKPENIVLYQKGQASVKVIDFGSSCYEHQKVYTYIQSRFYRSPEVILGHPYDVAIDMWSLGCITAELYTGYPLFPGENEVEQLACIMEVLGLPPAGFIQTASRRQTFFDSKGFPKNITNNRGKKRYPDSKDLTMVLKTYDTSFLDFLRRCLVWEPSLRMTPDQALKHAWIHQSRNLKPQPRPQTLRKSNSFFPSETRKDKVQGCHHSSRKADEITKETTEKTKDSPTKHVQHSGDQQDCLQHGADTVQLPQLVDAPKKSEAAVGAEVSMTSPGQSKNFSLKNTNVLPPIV

[13] = target: Serine/threonine-protein kinase pim-2 (Homo sapiens) (UniProt Q9P1W9); experiment: Inhibition of PIM2 (unknown origin) at 0.49 uM relative to control
Chain of Serine/threonine-protein kinase pim-2 (Homo sapiens) (Q9P1W9 whole entry, looked up): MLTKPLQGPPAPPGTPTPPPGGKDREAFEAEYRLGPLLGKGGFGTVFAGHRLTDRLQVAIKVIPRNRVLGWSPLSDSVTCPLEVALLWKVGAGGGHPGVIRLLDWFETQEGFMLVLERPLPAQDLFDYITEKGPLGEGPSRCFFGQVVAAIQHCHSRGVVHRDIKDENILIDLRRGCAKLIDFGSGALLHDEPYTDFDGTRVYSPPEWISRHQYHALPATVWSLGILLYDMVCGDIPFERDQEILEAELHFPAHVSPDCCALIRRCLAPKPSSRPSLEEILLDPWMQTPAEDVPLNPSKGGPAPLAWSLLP

[14] = system: Tyrosine-protein kinase ABL1 (Homo sapiens), P00519 [Q252H]; experiment: Inhibition of Abl Q252H mutant (unknown origin) at 0.49 uM relative to control
[15] = target: MAP kinase-activated protein kinase 2 (Homo sapiens) (UniProt P49137); experiment: Inhibition of MAPKAPK2 (unknown origin) at 0.49 uM relative to control
[16] = target: T3, cGMP-dependent protein kinase 1 (Homo sapiens) (UniProt Q13976); experiment: Inhibition of PKG1-beta (unknown origin) at 0.45 uM relative to control
T3 sequence (whole entry): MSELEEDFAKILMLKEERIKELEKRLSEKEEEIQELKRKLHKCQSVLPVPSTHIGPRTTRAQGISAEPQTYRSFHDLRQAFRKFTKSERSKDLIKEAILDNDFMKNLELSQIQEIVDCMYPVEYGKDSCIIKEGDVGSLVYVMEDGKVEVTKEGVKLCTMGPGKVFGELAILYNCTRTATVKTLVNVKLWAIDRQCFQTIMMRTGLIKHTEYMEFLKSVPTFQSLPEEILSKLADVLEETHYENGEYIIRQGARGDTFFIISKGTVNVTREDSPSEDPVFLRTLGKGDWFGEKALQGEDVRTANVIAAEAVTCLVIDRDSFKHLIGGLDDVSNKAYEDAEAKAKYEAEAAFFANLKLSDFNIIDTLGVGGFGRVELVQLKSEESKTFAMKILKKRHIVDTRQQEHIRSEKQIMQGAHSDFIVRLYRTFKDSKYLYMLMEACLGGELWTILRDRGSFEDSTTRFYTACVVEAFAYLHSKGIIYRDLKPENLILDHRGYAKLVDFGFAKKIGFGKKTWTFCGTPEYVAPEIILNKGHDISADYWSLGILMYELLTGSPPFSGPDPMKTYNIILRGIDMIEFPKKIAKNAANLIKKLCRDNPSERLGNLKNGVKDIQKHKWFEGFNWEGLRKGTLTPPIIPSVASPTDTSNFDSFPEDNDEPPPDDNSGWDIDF

[17] = target: Calcium/calmodulin-dependent protein kinase type II subunit beta (Homo sapiens) (UniProt Q13554); experiment: Inhibition of CAMK2 (unknown origin) at 0.45 uM relative to control
Chain of Calcium/calmodulin-dependent protein kinase type II subunit beta (Homo sapiens) (Q13554 whole entry): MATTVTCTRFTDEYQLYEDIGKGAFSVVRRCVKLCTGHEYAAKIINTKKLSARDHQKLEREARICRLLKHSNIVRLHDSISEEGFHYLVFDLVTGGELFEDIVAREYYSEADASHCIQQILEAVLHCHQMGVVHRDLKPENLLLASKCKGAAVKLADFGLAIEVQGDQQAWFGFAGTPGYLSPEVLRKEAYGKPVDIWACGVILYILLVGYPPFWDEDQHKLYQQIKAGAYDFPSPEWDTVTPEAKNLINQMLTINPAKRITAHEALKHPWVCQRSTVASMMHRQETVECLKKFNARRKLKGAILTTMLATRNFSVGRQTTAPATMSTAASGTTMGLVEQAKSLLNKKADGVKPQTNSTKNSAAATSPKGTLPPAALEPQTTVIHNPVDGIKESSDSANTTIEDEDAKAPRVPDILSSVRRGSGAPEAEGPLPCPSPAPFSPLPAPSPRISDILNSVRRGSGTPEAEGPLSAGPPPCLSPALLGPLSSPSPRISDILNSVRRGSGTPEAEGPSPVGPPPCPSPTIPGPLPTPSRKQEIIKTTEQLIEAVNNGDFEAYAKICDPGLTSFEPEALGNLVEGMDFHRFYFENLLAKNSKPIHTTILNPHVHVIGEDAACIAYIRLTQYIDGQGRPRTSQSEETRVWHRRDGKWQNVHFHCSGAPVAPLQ

[18] = target: Tyrosine-protein kinase Lck (Homo sapiens) (UniProt P06239); experiment: Inhibition of LCK (unknown origin) at 0.45 uM relative to control

Chain of Hepatocyte growth factor receptor (Homo sapiens) (P08581 whole entry): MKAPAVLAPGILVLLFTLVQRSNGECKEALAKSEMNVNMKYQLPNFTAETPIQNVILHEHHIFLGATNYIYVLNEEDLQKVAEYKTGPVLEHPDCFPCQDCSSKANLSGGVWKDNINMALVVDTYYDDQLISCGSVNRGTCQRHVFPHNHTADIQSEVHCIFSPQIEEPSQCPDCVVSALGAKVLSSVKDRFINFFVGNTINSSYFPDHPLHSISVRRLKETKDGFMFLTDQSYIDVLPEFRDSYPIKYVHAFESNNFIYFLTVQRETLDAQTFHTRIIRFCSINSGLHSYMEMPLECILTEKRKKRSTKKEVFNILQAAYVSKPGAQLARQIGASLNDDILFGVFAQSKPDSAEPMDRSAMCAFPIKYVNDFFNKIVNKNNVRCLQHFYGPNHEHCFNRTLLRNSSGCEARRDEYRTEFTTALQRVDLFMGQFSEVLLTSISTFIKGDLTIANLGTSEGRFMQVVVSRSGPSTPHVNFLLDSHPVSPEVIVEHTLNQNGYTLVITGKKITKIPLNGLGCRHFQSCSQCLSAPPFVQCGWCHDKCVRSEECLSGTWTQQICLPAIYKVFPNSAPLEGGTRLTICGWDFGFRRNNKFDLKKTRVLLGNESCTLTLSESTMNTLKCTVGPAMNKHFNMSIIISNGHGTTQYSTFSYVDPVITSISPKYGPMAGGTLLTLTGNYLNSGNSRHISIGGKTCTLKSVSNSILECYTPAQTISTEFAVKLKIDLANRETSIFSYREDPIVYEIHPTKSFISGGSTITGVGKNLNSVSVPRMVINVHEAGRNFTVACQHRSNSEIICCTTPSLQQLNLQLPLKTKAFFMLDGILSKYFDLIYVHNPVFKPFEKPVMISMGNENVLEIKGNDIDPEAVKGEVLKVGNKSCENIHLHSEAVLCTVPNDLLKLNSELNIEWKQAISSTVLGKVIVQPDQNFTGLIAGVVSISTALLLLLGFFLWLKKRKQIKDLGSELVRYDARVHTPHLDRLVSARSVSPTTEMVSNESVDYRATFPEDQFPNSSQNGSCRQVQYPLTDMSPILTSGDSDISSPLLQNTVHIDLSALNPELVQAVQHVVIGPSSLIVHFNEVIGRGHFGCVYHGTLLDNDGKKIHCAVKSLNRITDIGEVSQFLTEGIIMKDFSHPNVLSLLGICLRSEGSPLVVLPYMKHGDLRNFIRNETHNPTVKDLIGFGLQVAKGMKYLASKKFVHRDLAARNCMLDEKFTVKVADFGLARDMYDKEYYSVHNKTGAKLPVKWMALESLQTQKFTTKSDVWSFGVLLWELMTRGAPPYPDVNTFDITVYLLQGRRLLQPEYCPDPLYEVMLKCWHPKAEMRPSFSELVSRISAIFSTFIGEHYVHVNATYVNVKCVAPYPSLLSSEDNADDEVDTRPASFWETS

inhibition [1]: 1%
inhibition [2]: -3%
inhibition [3]: 10%
inhibition [4]: -5.7%
Compound: COC(=O)Nc1noc2cc(-c3c(-c4ccccn4)n[nH]c3C)ccc12

inhibition [5]: 0.3%
inhibition [6]: -0.3%
inhibition [7]: 0.7%
inhibition [8]: 6.3%
inhibition [9]: -0.7%
inhibition [10]: 0.7%
inhibition [11]: 5%
inhibition [12]: 1.3%
inhibition [13]: -6%
inhibition [14]: 30.3%
inhibition [15]: 2.7%
Compound: Cc1[nH]nc(C2CC2)c1-c1ccc2c(NC(=O)C3CC3)noc2c1

inhibition [16]: 8%
inhibition [17]: 19.7%
inhibition [18]: 32.3%
Compound: Cc1n[nH]c(C)c1-c1ccc2c(NC(=O)c3ccc(N4CCN(C)CC4)cc3)n[nH]c2c1

Source: ChEMBL document CHEMBL4052759, “Discovery of DS79182026: A potent orally active hepcidin production inhibitor” (Bioorg Med Chem Lett, 2017)
